Test results as given in patent US20230048901A1, “SOLID ORAL FORMULATION OF UTIDELONE” (Beijing Biostar Pharmaceuticals Co., Ltd., priority 2020, published 2023).

Assay: Solubility of Utidelone in water and organic solvents
Format: physicochemical
Description: The saturated solubility in water is less than 1 μg/ml, so it is difficult to develop into an oral formulation with suitable bioavailability. At present, the marketed epothilone antitumor drugs such as Utidelone injection and Ixabepilone injection etc., all of which use non-aqueous solvents such as ethanol and polyoxyl castor oil as solvents, are diluted with sodium chloride injection for administration by intravenous infusion. Since polyoxyl castor oil is a strong allergenic substance, antiallergic treatment must be given before intravenous administration, which reduces the compliance of this type of drug in clinical use, increases the adverse reactions of patients, and limits its clinical application.

C/C1=C/CC(/C(C)=C/c2csc(C)n2)OC(=O)C[C@H](O)C(C)(C)C(=O)[C@H](C)[C@@H](O)[C@@H](C)CCC1 (stereo partly drawn) [Utidelone, 4,8-dihydroxy-5,5,7,9,13-pentamethyl-16-[1-methyl-2-(2-methyl-thiazole-4-yl)-vinyl]-hexadecoxetane-13-en-2,6-one lactone]
solubility in organic solvents (ethanol, methanol, ethyl acetate, chloroform): easily soluble | solubility in water (water): insoluble in water | solubility (water, read-out: saturated solubility in water): < 1 µg/mL
